Assay results as given in USRE39021E1, “Hydantoin-enhanced halogen efficacy in pulp and paper applications” (Lonza Inc., priority 1994, dated 2006).

Tests used:
[1] = tested on: P. Aeruginosa and E. Aerogenes; test: Example 5: pulp slurry bactericidal efficacy of NaOCl with N-hydrogen compounds (1:1); type: cell-based; settings: for efficacy enhancement over sodium hypochlorite alone / Final Bacteria: NaOCl to N-hydrogen compound 1:1 molar; for efficacy enhancement over sodium hypochlorite alone / log reduction of bacteria: Example 5; for log reduction of bacteria: 5 ppm halogen
Procedure: (§1) The addition of 5,5-dimethylhydantoin (DMH) to sodium hypochlorite solutions enhances the biocidal activity of sodium hypochlorite. The conditions of this experiment were a modification of ASTM E 600-91. Two biocide solutions were evaluated: NaOCl and NaOCl mixed with DMH in a 0.25:1 molar ratio. The NaOCl and the DMH were mixed prior to pulp introduction. The biocides were introduced to the pulp slurry 10 minutes prior to inoculation with 2×10^6 cfu/ml P. Aeruginosa and E. Aerogenes. The pulp slurry consisted of 1.3% ground aspen wood pulp and 200 ppm rosin adjusted to pH=5.0-5.5 with aluminum sulfate. Bacteria populations were measured 3 hours after pulp slurry inoculation. Final total halogen concentrations were measured at the time of bacterial population plating by sample centrifuging followed by standard DPD analyses. Biocides were neutralized with sodium thiosulfate prior to plating.
(§2) The conditions were the same as those of Example 1. The molar ratio of the NaOCl to N-hydrogen compound was 1:1.

bacteria = settings: residual chlorine concentrations of 1.6 ppm as Cl2; U.S. Pat. No. 3,328,294; cited from earlier work
[2] = tested on: P. Aeruginosa and E. Aerogenes; test: Example 1: pulp slurry bactericidal efficacy (modified ASTM E 600-91), biocide added 10 minutes prior to inoculation; type: cell-based; settings: for Final Bacteria: inoculum 2×10^6 cfu/ml, 3 hours after inoculation
Procedure: as §1

[3] = tested on: P. Aeruginosa and E. Aerogenes; test: Example 2: bactericidal efficacy of NaOCl added to DMH-treated pulp slurry; type: cell-based; settings: for Final Bacteria: NaOCl added to pulp slurry (DMH-treated for 1:1 system)
Procedure: as §1
(§3) Prereaction of DMH with NaOCl as described in Example 1 was not required. The conditions of this experiment were in other respects the same as Example 1. The molar ratio in the pulp slurry was 1:1 NaOCl to DMH.

[4] = tested on: P. Aeruginosa and E. Aerogenes; test: Example 3: bactericidal efficacy in preinoculated pulp slurry samples; type: cell-based; settings: for Final Bacteria: pulp inoculated 5 minutes prior to biocide
Procedure: as §1
(§4) The conditions were the same as Example 1 except that the pulp was inoculated with bacteria 5 minutes prior to biocide introduction as opposed to 10 minutes after. Also the NaOCl to DMH mole ratio was increased from 0.25:1 to 1:1.

[5] = Example 1: final total halogen in pulp slurry (DPD analyses); type: physicochemical; settings: 3 hours after inoculation; for Total Halogen Final: 1.3% aspen pulp slurry pH 5.0-5.5; for % Residual Halogen: pulp slurry pH 5.0-5.5
Procedure: as §1

[6] = Example 2: final total halogen in DMH-treated pulp slurry; type: physicochemical; settings: NaOCl added to pulp slurry (DMH-treated for 1:1 system)
Procedure: as §1, §3

[7] = Example 3: final total halogen in preinoculated pulp slurry; type: physicochemical; settings: pulp inoculated 5 minutes prior to biocide
Procedure: as §1, §4

[8] = Example 4: halogen consumption in non-inoculated pulp slurry vs NaOCl:DMH molar ratio; type: physicochemical; settings: initial total halogen 25.6 ppm as Cl2; pulp slurry not inoculated
Procedure: as §1, §3
The experimental conditions were the same as those of Example 2, except that the pulp slurry was not inoculated with bacteria.

[9] = Example 5: final total halogen in pulp slurry with N-hydrogen compounds; type: physicochemical; settings: for % Residual Halogen / Total Halogen Final: NaOCl to N-hydrogen compound 1:1 molar
Procedure: as §1, §2

[10] = tested on: P. Aeruginosa and E. Aerogenes; test: Example 7: pulp slurry bactericidal efficacy of N-halohydantoin compound; type: cell-based; settings: conditions of Example 1
Procedure: as §1
(§5) Specifically, Dantochlor®, a commercial halogenated hydantoin containing predominantly dichlorodimethylhydantoin and dichloroethylmethylhydantoin was used. The conditions were the same as those of Example 1.

[11] = Example 7: final total halogen in pulp slurry; type: physicochemical; settings: conditions of Example 1
Procedure: as §1, §5

[12] = initial total halogen 1.0 ppm as Cl2
[13] = initial total halogen 3.0 ppm as Cl2
[14] = initial total halogen 5.0 ppm as Cl2
[15] = initial total halogen 7.5 ppm as Cl2
[16] = initial total halogen 10 ppm as Cl2
[17] = initial total halogen 3 ppm as Cl2
[18] = initial total halogen 5 ppm as Cl2
[19] = initial total halogen 15 ppm as Cl2
[20] = initial total halogen 0.8 ppm as Cl2
[21] = initial total halogen 3.4 ppm as Cl2
[22] = initial total halogen 16.3 ppm as Cl2

## NS(=O)(=O)O [Sulfamic acid, sulfamic acid]
[1]
  efficacy enhancement over sodium hypochlorite alone: no efficacy enhancement

## O=S(=O)(O)NCl [N-chlorosulfamate]
bacteria
  bacterial concentrations achieved: 10^3 cfu/ml

## CC1(C)NC(=O)NC1=O [DMH, 5,5-dimethylhydantoin]
[2]; 1 ppm halogen with DMH equivalent to 5 ppm halogen alone, Example 1
  increase in efficacy of NaOCl in the presence of DMH: fivefold
[3]; 3 ppm with DMH vs 5 ppm in its absence, Example 2
  increase in efficacy of NaOCl in the presence of DMH: twofold
[3]; initial halogen concentration 3 ppm, in the presence of DMH, Example 2
  log reduction in bacteria concentration: 2 log
[4]; dosage 0.8 ppm halogen, in the presence of DMH, preinoculated samples, Example 3
  log reduction of bacteria: 3 log

## [Na+].[O-]Cl [NaOCl, sodium hypochlorite]
[2]; [12]
  Final Bacteria: 10^5 cfu/ml
[2]; [13]
  Final Bacteria: 10^4 cfu/ml
[2]; [14]
  Final Bacteria: ≦10^3 cfu/ml
[2]; [15]
  Final Bacteria: ≦10^3 cfu/ml
[2]; [16]
  Final Bacteria: ≦10^3 cfu/ml
[5]; [12]
  Total Halogen Final: 0.00 ppm as Cl2
  % Residual Halogen: 0%
[5]; [13]
  Total Halogen Final: 0.00 ppm as Cl2
  % Residual Halogen: 0%
[5]; [14]
  Total Halogen Final: 0.00 ppm as Cl2
  % Residual Halogen: 0%
[5]; [15]
  Total Halogen Final: 0.04 ppm as Cl2
  % Residual Halogen: 0.5%
[5]; [16]
  Total Halogen Final: 0.08 ppm as Cl2
  % Residual Halogen: 0.8%
[3]; [17]
  Final Bacteria: 10^5 cfu/ml
[3]; [18]
  Final Bacteria: 10^4 cfu/ml
[3]; [15]
  Final Bacteria: <10^3 cfu/ml
[3]; [16]
  Final Bacteria: <10^3 cfu/ml
[3]; [19]
  Final Bacteria: <10^3 cfu/ml
[6]; [17]
  % Residual Halogen: 0.0%
  Total Halogen Final: 0.00 ppm as Cl2
[6]; [18]
  % Residual Halogen: 0.4%
  Total Halogen Final: 0.02 ppm as Cl2
[6]; [15]
  % Residual Halogen: 0.5%
  Total Halogen Final: 0.06 ppm as Cl2
[6]; [16]
  % Residual Halogen: 0.4%
  Total Halogen Final: 0.04 ppm as Cl2
[6]; [19]
  % Residual Halogen: 0.7%
  Total Halogen Final: 0.11 ppm as Cl2
[4]; [20]
  Final Bacteria: 10^4 cfu/ml
[4]; [21]
  Final Bacteria: <10^3 cfu/ml
[4]; [22]
  Final Bacteria: <10^3 cfu/ml
[7]; [20]
  % Residual Halogen: 1.3%
  Total Halogen Final: 0.01 ppm as Cl2
[7]; [21]
  % Residual Halogen: 1.0%
  Total Halogen Final: 0.03 ppm as Cl2
[7]; [22]
  % Residual Halogen: 2.1%
  Total Halogen Final: 0.34 ppm as Cl2
[8]
  % Residual Halogen: 0.4%
  Total Halogen Final: 0.11 ppm as Cl2
[1]
  log reduction of bacteria: 1 log
[1]; [12]
  Final Bacteria: 10^6 cfu/ml
[1]; [13]
  Final Bacteria: 10^5 cfu/ml
[1]; [14]
  Final Bacteria: 10^5 cfu/ml
[9]; [12]
  % Residual Halogen: 0.0%
  Total Halogen Final: 0.00 ppm as Cl2
[9]; [13]
  % Residual Halogen: 0.7%
  Total Halogen Final: 0.02 ppm as Cl2
[9]; [14]
  % Residual Halogen: 0.6%
  Total Halogen Final: 0.03 ppm as Cl2
[10]; [14]
  Final Bacteria: ≦10^3 cfu/ml
[10]; [15]
  Final Bacteria: ≦10^3 cfu/ml
[11]; [14]
  % Residual Halogen: 0.4%
  Total Halogen Final: 0.02 ppm as Cl2
[11]; [15]
  % Residual Halogen: 1%
  Total Halogen Final: 0.05 ppm as Cl2

## CCC1(C)NC(=O)NC1=O (stereo not drawn) [MEH, 5-ethyl-5-methylhydantoin]
[1]
  log reduction of bacteria: 3 log
  efficacy enhancement over sodium hypochlorite alone: dramatically increased NaOCl efficacy
[9]; compared with cyanuric acid, Example 5
  mitigation of halogen decomposition: greatest mitigation of halogen decomposition
